# Experimental data from US8808702B2, “Sulfide, sulfoxide and sulfone chalcone analogues, derivatives thereof and therapeutic uses thereof” (Temple University-of the Commonwealth System of Higher …, priority 2006, dated 2014).
# Like-named read-outs stand apart in the source and are kept apart here.
# Tests used:
# DU145 (prostate cancer) = test: Effect of compounds on tumor cell lines (assay of Latham et al.), DU145; format: cell-based; settings: DU145 cells, read-out: DU 145 potency (IC50)
# Outline: (§1)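 K562 or DU145 cells plated at 2.5×10^4 cells/well, treated 24 h later with compound in DMSO at 1 μM to 100 μM (0.1 μM to 100 μM for one compound). Activity judged by microscopic observation after 96 h; where needed, viable cells counted by trypan blue exclusion.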
# [1] = tested on: K562 (chronic myelogenous leukaemia); test: Effect of compounds on tumor cell lines (assay of Latham et al.), K562; format: cell-based; settings: K562 cells, read-out: K 562 potency (IC50)
# Outline: as §1
# [2] = Table 1, examined 96 hours after treatment, 1 μM to 100 μM in DMSO
# [3] = 96 hours after treatment, 1 μM to 100 μM
# [4] = Table 4, examined 96 hours after treatment, 1 μM to 100 μM in DMSO
# [5] = Table 3, examined 96 hours after treatment, 1 μM to 100 μM in DMSO
Structure (SMILES),IC50 (DU145 (prostate cancer); [3]) [µM],"IC50 [1, 3] [µM]",also measured
O=C(C(=Cc1cc(Cl)cc(Cl)c1Cl)Sc1ccccc1Br)c1ccc(Cl)cc1 [Example 3],–,–,"IC50 (DU145 (prostate cancer); [2]): 25 to 50 µM; IC50 [1, 2]: 50 to 100 µM"
CCOC(=O)c1c(C)[nH]c(C=C(SCc2ccc(Br)cc2)C(=O)c2ccc(SCc3ccc(Br)cc3)c([N+](=O)[O-])c2)c1C [Example 309],> 100,> 100,–
O=C(/C(=C\c1ccc(O)c([N+](=O)[O-])c1)S(=O)(=O)Cc1ccc(Cl)cc1)c1ccc(Cl)cc1 [Example 393],–,–,"IC50 (DU145 (prostate cancer); [4]): 25 to 50 µM; IC50 [1, 4]: 25 to 50 µM"
Cc1ccc(C)c(C=C(Sc2ccc(Br)cc2)C(=O)c2ccc(Cl)cc2)c1 [Example 19],–,–,"IC50 (DU145 (prostate cancer); [2]): 10 to 25 µM; IC50 [1, 2]: 10 to 25 µM"
O=C(C(=Cc1c(O)cc(O)cc1O)Sc1ccccc1Br)c1ccc(Cl)cc1 [Example 5],–,–,"IC50 (DU145 (prostate cancer); [2]): > 100 µM; IC50 [1, 2]: > 100 µM"
Cc1ccc(CSC(=Cc2ccc(O)c(O)c2O)C(=O)c2ccc(Cl)cc2)cc1 [Example 270],50 to 100,50 to 100,–
Cc1ccc(SC(=Cc2ccc(Cl)c(Cl)c2)C(=O)c2ccc(Br)cc2)cc1 [Example 77],–,–,"IC50 (DU145 (prostate cancer); [2]): 50 to 100 µM; IC50 [1, 2]: 50 to 100 µM"
CCOc1cc(C=C(SCc2ccc(Cl)cc2Cl)C(=O)c2ccc(Cl)cc2)ccc1O [Example 117],10 to 25,1 to 10,–
Cc1ccc(SC(=Cc2ccc(-c3ccccc3)cc2)C(=O)c2ccc(Br)cc2)cc1 [Example 110],–,–,"IC50 (DU145 (prostate cancer); [2]): 50 to 100 µM; IC50 [1, 2]: 25 to 50 µM"
COc1ccc(C(=O)C(=Cc2ccc(OC)c(O)c2)Sc2ccc(F)cc2)cc1 [Example 56],–,–,"IC50 (DU145 (prostate cancer); [2]): 10 to 25 µM; IC50 [1, 2]: 1 to 10 µM"
Cc1ccc(SC(=Cc2ccc(F)cc2F)C(=O)c2ccc(Br)cc2)cc1 [Example 73],–,–,"IC50 (DU145 (prostate cancer); [2]): > 100 µM; IC50 [1, 2]: > 100 µM"
CSc1ccc(C=C(SCc2ccc(C)cc2)C(=O)c2ccc(Cl)cc2)cc1 [Example 294],25 to 50,10 to 25,–
O=C(C(=Cc1ccc([N+](=O)[O-])c(O)c1)Sc1ccc(Br)cc1)c1c(F)c(F)c(F)c(F)c1F [Example 30],–,–,"IC50 (DU145 (prostate cancer); [2]): 1 to 10 µM; IC50 [1, 2]: 1 to 10 µM"
Cc1ccc(SC(=Cc2sccc2C)C(=O)c2ccc(Br)cc2)cc1 [Example 83],–,–,"IC50 (DU145 (prostate cancer); [2]): 50 to 100 µM; IC50 [1, 2]: 50 to 100 µM"
COc1ccc(C(=O)C(=Cc2ccc(Cl)cc2)Sc2ccc(F)cc2)cc1 [Example 58],–,–,"IC50 (DU145 (prostate cancer); [2]): > 100 µM; IC50 [1, 2]: > 100 µM"
O=C(C(=Cc1ccc(Br)c([N+](=O)[O-])c1)Sc1ccc(Br)cc1)c1ccc(Br)cc1 [Example 34],–,–,"IC50 (DU145 (prostate cancer); [2]): 1 to 10 µM; IC50 [1, 2]: 1 to 10 µM"
Cc1ccc(CSC(=Cc2ccc(F)cc2C(F)(F)F)C(=O)c2ccc(Cl)cc2)cc1 [Example 290],50 to 100,50 to 100,–

Structure (SMILES),IC50 (DU145 (prostate cancer); [3]) [µM],"IC50 [1, 3] [µM]",also measured
Cc1ccc(SC(=Cc2cnc3ccccc3c2)C(=O)c2ccc(Cl)cc2)cc1 [Example 85],–,–,"IC50 (DU145 (prostate cancer); [2]): > 100 µM; IC50 [1, 2]: > 100 µM"
Cc1ccc(SC(=Cc2ccc(O)c([N+](=O)[O-])c2)C(=O)c2ccc(Cl)cc2)cc1 [Example 96],–,–,"IC50 (DU145 (prostate cancer); [2]): 10 to 25 µM; IC50 [1, 2]: 25 to 50 µM"
O=C(C(=Cc1ccc(Cl)cc1)SCc1ccc(Cl)cc1)c1ccc(Cl)cc1 [Example 324],10 to 25,1 to 10,–
O=C(C(=Cc1cccnc1)SCc1ccc(Cl)cc1)c1ccc(Cl)cc1 [Example 322],1 to 10,1 to 10,–
O=C(C(=Cc1ccccc1O)Sc1ccccc1Br)c1ccc(Br)cc1 [Example 8],–,–,"IC50 (DU145 (prostate cancer); [2]): 50 to 100 µM; IC50 [1, 2]: 50 to 100 µM"
O=C(C(=Cc1ccc(Cl)c([N+](=O)[O-])c1)Sc1ccc(Br)cc1)c1ccc(Br)cc1 [Example 37],–,–,"IC50 (DU145 (prostate cancer); [2]): 1 to 10 µM; IC50 [1, 2]: 1 to 10 µM"
Cc1ccc(SC(=Cc2sccc2C)C(=O)c2ccc(Br)cc2)cc1 [Example 82],–,–,"IC50 (DU145 (prostate cancer); [2]): > 100 µM; IC50 [1, 2]: 50 to 100 µM"
Cc1ccc(CSC(=Cc2c(O)cc(O)cc2O)C(=O)c2ccc(Cl)cc2)cc1 [Example 272],50 to 100,50 to 100,–
CN(C)c1ccc(C=C(SCc2ccc(Cl)cc2Cl)C(=O)c2ccc(Cl)cc2)cc1 [Example 120],50 to 100,> 100,–
Cc1ccc(SC(=Cc2ccc(Oc3ccccc3)cc2)C(=O)c2ccc(Br)cc2)cc1 [Example 103],–,–,"IC50 (DU145 (prostate cancer); [2]): 1 to 10 µM; IC50 [1, 2]: 10 to 25 µM"
O=C(/C(=C\c1ccc(O)c([N+](=O)[O-])c1)S(=O)(=O)Cc1ccc(Br)cc1)c1c(F)c(F)c(F)c(F)c1F [Example 373],–,–,"IC50 (DU145 (prostate cancer); [4]): 50 to 100 µM; IC50 [1, 4]: 50 to 100 µM"
Cc1ccc(CSC(=Cc2c[nH]c3ccc(Br)cc23)C(=O)c2ccc(Cl)cc2)cc1 [Example 295],1 to 10,1 to 10,–
COc1ccc(C=C(SCc2ccc(Cl)cc2)C(=O)c2ccc(Cl)cc2)cc1 [Example 228],10 to 25,1 to 10,–
Cc1ccsc1C=C(SCc1ccccc1F)C(=O)c1ccc(Cl)cc1 [Example 134],50 to 100,50 to 100,–
COc1cc(OC)c(/C=C(\C(=O)c2ccc(Cl)cc2)[S+]([O-])Cc2ccccc2Cl)c(OC)c1 (stereo not drawn) [Example 354],–,–,"IC50 (DU145 (prostate cancer); [5]): 10 to 25 µM; IC50 [1, 5]: 50 to 100 µM"
O=C(C(=Cc1ccc(OCc2ccccc2)cc1)SCc1cccc(Cl)c1)c1ccc(Br)cc1 [Example 146],1 to 10,1 to 10,–

# Further lines, with some results ahead:
IC50 (DU145 (prostate cancer); [3]) [µM],"IC50 [1, 3] [µM]",Structure (SMILES),also measured
10 to 25,1 to 10,O=C(O)c1ccc(C(=O)C(=Cc2ccc([N+](=O)[O-])c(O)c2)SCc2ccc(Br)cc2)cc1 [Example 156],–
> 100,50 to 100,CN(C)c1ccc(C=C(SCc2ccc(Cl)cc2)C(=O)c2ccc([N+](=O)[O-])cc2)cc1 [Example 211],–
50 to 100,> 100,Cc1ccsc1C=C(SCc1ccc(F)cc1)C(=O)c1ccc(Br)cc1 [Example 246],–
1 to 10,1 to 10,CC1=CC(=O)C(C)=C(C(C)(C)CC(=O)Oc2cc(C=C(SCc3ccc(Br)cc3)C(=O)c3ccc(Br)cc3)ccc2[N+](=O)[O-])C1=O [Example 307],–
25 to 50,25 to 50,O=C(O)c1ccc(C(=O)C(=Cc2ccc(O)c(Br)c2)SCc2ccc(Br)cc2)cc1 [Example 150],–
10 to 25,1 to 10,Cc1ccc(CSC(=Cc2ccc(Br)cc2)C(=O)c2ccc(Cl)cc2)cc1 [Example 286],–
> 100,> 100,O=C(/C(=C\c1ccc([N+](=O)[O-])c(O)c1)SCc1ccc(Br)cc1)c1ccc(N2CCCC2)cc1 [Example 159],–
10 to 25,10 to 25,O=C(O)c1ccc(C(=O)C(=Cc2ccccc2F)SCc2ccc(Br)cc2)cc1 [Example 306],–
> 100,> 100,O=C(/C(=C\c1ccc(O)c([N+](=O)[O-])c1)SCc1ccc(Br)cc1)c1ccc(N2CCCC2)cc1 [Example 185],–
50 to 100,1 to 10,CCOc1ccc(C=C(SCc2ccc(F)cc2)C(=O)c2ccc(Br)cc2)cc1OC [Example 257],–
10 to 25,10 to 25,Cc1cc(C)cc(C=C(SCc2ccc(Br)cc2)C(=O)c2ccc(Cl)cc2)c1 [Example 149],–
1 to 10,≤ 1,O=C(O)c1ccc(C(=O)C(=Cc2ccc(Br)c([N+](=O)[O-])c2)SCc2ccc(Cl)cc2)cc1 [Example 213],–
10 to 25,1 to 10,O=C(/C(=C\c1ccc(O)c([N+](=O)[O-])c1)SCc1ccc(Br)cc1)c1ccc(Cl)cc1Cl [Example 176],–
25 to 50,1 to 10,COc1ccc(C=C(SCc2ccc(F)cc2)C(=O)c2ccc(Br)cc2)cc1 [Example 265],–
1 to 10,≤ 1,COc1ccc(C=C(SCc2ccc(Cl)cc2)C(=O)c2ccc(Cl)cc2)cc1O [Example 204],–
10 to 25,1 to 10,Cc1ccc(CSC(=Cc2ccccc2F)C(=O)c2ccc(Br)cc2)cc1 [Example 277],–
> 100,50 to 100,O=C(/C(=C\c1ccc(O)c([N+](=O)[O-])c1)SCc1ccc(Br)cc1)c1ccc(O)cc1O [Example 177],–
25 to 50,1 to 10,COc1ccc(C=C(SCc2ccc(Cl)cc2)C(=O)c2ccc(Br)cc2)cc1 [Example 226],–
10 to 25,1 to 10,COc1ccc(C=C(SCc2ccc(Cl)cc2)C(=O)c2ccc(Br)cc2)cc1 [Example 225],–
1 to 10,1 to 10,O=C(O)c1ccc(C(=O)/C(=C\c2ccc(Br)c([N+](=O)[O-])c2)SCc2ccc(Br)cc2)cc1 [Example 165],–
1 to 10,≤ 1,O=C(O)c1ccc(C(=O)C(=Cc2ccc(Cl)c([N+](=O)[O-])c2)SCc2ccc(Cl)cc2)cc1 [Example 216],–
10 to 25,1 to 10,O=C(C(=Cc1ccc(O)cc1)SCc1ccc(Cl)cc1)c1ccc(Br)cc1 [Example 221],–
10 to 25,1 to 10,Cc1ccc(CS/C(=C/c2ccc(F)c([N+](=O)[O-])c2)C(=O)c2ccc(C(=O)O)cc2)cc1 [Example 348],–
1 to 10,1 to 10,O=C(/C(=C\c1cc(I)c(O)c(I)c1)SCc1ccc(Br)cc1)c1ccc(Br)cc1 [Example 173],–
10 to 25,10 to 25,CN1CCN(CCNC(=O)c2ccc(C(=O)/C(=C\c3ccc(F)c([N+](=O)[O-])c3)SCc3ccc(F)cc3)cc2)CC1 [Example 337],–
1 to 10,1 to 10,COc1ccc(C=C(SCc2ccc(Cl)cc2)C(=O)c2ccc(Br)cc2)cc1O [Example 203],–
50 to 100,25 to 50,CN(C)c1ccc(/C=C(/SCc2ccc(Br)cc2)C(=O)c2ccc(C(=O)O)cc2)cc1 [Example 164],–
